One test has as its system ACAT1. The test is described as follows: ACAT1 expression by macrophages of treated apoE-deficient mice (Western blotting). It is filed as in vivo. As to conditions: four weeks, P<0.05. As to the method: (§1) 13-week-old male apoE-deficient mice (72 mice) were divided into the following 6 groups: (i) physiological salt saline (control); (ii) salusin-α (0.6 nmol/kg/h); (iii) salusin-β (0.6 nmol/kg/h); (iv) salusin-α (0.6 nmol/kg/h)+anti-salusin-α serum (1.4 μg/kg/h); (v) salusin-β (0.6 nmol/kg/h)+anti-salusin-β serum (1.4 μg/kg/h); and (vi) anti-salusin-β serum (1.4 μg/kg/h). The mice were subjected to continuous subcutaneous administration with the use of an osmotic mini-pump for 4 to 8 weeks. The osmotic mini-pump and the solution contained therein were changed every week.
(§2) Macrophages were collected as in the experiment in (1), and the protein expression of the gene involved in foaming of macrophages (i.e., scavenger receptors CD36 and SR-A capable of recognizing oxidized LDL, intracellular cholesterol esterification enzyme ACAT1, and ABCA1, ABCG1, and SR-BI, which are involved in cholesterol efflux) was analyzed by Western blotting. For the internal standard of the macrophage function, β-actin expression was also examined. For quantification of the band concentration, Analyzer (ATTO Corporation, Tokyo) was used.
On the technique in general: Immunoblotting shows a protein as a band on a membrane.

In the next test the test system is CD36. Briefly: CD36 expression by macrophages of treated apoE-deficient mice (Western blotting). The test is classed as in vivo. Particulars: four weeks. The method, then:
as §1, §2

In a further test the test system is ACAT activity. The test is described as follows: ACAT activity assay by liposome reconstitution method in human monocyte-derived macrophages. The test is classed as cell-based. Particulars: 0.6 nM during 7-day culture. From the text:
For ACAT activity assay, the liposome reconstitution method was used. This method involves the use of a system in which the ACAT-1 protein present in the endoplasmic reticulum is reconstituted into liposomes with the use of mixed micelles comprising cholesterol/phosphatidylcholine, thereby achieving a saturated concentration level of cholesterol that can be used as an ACAT-1 substrate [Cheng D et al., J Biol Chem. 1995; 270: 685-695.]. In the case of the conventionally used microsome method, cholesterol that endogenously exists in the endoplasmic reticulum has been used as a substrate. However, in general, the endoplasmic reticulum membrane is poor in cholesterol. Therefore, it is thought that the saturated level of cholesterol capable of serving as an ACAT substrate has not been achieved, resulting in underestimation of ACAT activity. Herein, ACAT activity was assayed by adding another substrate, [^14C]oleoyl-CoA, to a reaction system and assaying the cholesterol [^14C]oleate generated through the ACAT reaction (FIG. 4).
Peripheral blood human monocytes (4×10^6 cells/2 mL) were seeded on 4 to 6 6-cm dishes and cultured for 7 days so as to differentiate into macrophages. At such time, salusin-α or salusin-β was added during culture. […] The protein concentration of the homogenized cell extraction solution was quantitatively assayed by the BCA method (Pierce). […]

Consider “salusin-β: peptide (SEQ ID NO: 3) comprising 20 amino acid residues, generated by processing from preprosalusin (AIFIFIRWLLKLGHHGRAPP; listed as Homo sapiens) [reference compound]”, for which the “ACAT1 protein expression relative to control level” value in the test on ACAT1 (0.6 nmol/kg/h, range given jointly for CD36, SR-A, ACAT1) was in the range of 1.5 to 2.8 times. Moreover, the “CD36 protein expression relative to control level” value in the test on CD36 (0.6 nmol/kg/h, range given jointly for CD36, SR-A, ACAT1, P<0.05) is reported as 1.5 to 2.8 times. The “ACAT activity relative to control” value in the test on ACAT activity came to 1.8 times.
Turning to “salusin-α: peptide (SEQ ID NO: 1) comprising 28 amino acid residues, generated by processing from preprosalusin (SGALPPAPAAPRPALRAQRAGPAGPGAK; listed as Homo sapiens)”, the “ACAT1 protein expression relative to initial level” value in the test on ACAT1 (salusin-α 0.6 nmol/kg/h) is given as “approximately half”. Further, the CD36 protein expression result in the test with CD36 (salusin-α 0.6 nmol/kg/h) was “did not influence”. In addition, the “ACAT activity, percent of that of the control” value in the test on ACAT activity was 50%.

For the origin of these results see patent US20110165173A1, “THERAPEUTIC AGENT AND DETECTION REAGENT FOR ARTERIOSCLEROTIC DISEASE WHICH TARGETS FOR SALUSIN” (PROTEINEXPRESS CO., LTD., priority 2007, published 2011).
